In patent US20230192717A1, “COMPOSITIONS AND METHODS OF MODULATING SHORT-CHAIN DEHYDROGENASE ACTIVITY” (RODEO THERAPEUTICS CORPORATION, priority 2020, published 2023):
≈ marks a conversion by molar mass, not a printed value.

target: T1, recombinant 15-PGDH (Homo sapiens, UniProt P15428); assay: inhibition of enzymatic activity of recombinant 15-PGDH in vitro; format: biochemical; conditions: recombinant human 15-PGDH
T1 sequence (P15428 1-266): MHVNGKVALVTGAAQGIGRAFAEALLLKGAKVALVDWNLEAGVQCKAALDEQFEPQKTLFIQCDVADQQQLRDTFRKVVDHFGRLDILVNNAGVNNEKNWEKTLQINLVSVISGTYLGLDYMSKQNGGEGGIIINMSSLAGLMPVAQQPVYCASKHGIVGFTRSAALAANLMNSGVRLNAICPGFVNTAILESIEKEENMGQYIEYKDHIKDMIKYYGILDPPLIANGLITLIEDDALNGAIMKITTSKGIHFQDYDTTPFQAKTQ
Description: The Recombinant 15-PGDH is human unless otherwise specified.

SMILES | IC50
COCC[S+]([O-])c1sc2nc(-c3ccc4nccnc4c3)cc(C(C)C)c2c1N (single isomer, unassigned) [Compound 25, 2-[2-methoxyethanesulfinyl]-4-(propan-2-yl)-6-(quinoxalin-6-yl)thieno[2,3-b]pyridin-3-amine] | > 10 nM
COCC[S@@+]([O-])c1sc2nc(-c3cnc(N)nc3)cc(C(C)C)c2c1N (stereo in doubt) [Compound 18, 5-{3-amino-2-[2-methoxyethanesulfinyl]-4-(propan-2-yl)thieno[2,3-b]pyridin-6-yl}pyrimidin-2-amine] | < 2.5 nM
COCC[S@+]([O-])c1sc2nc(-c3cnc(N)nc3)cc(C(C)C)c2c1N (stereo in doubt) [Compound 19, 5-{3-amino-2-[2-methoxyethanesulfinyl]-4-(propan-2-yl)thieno[2,3-b]pyridin-6-yl}pyrimidin-2-amine] | > 10 nM
CNc1ncc(-c2cc(C(C)C)c3c(N)c([S+]([O-])CCOC)sc3n2)cn1 (stereo in doubt) [Compound 23, 5-{3-amino-2-[(R)-2-methoxyethanesulfinyl]-4-(propan-2-yl)thieno[2,3-b]pyridin-6-yl}-N-methylpyrimidin-2-amine] | > 10 nM
COCC[S@@+]([O-])c1sc2nc(-c3ccc4nccnc4c3)cc(C(C)C)c2c1N (stereo in doubt) [Compound 24, 2-[2-methoxyethanesulfinyl]-4-(propan-2-yl)-6-(quinoxalin-6-yl)thieno[2,3-b]pyridin-3-amine] | < 2.5 nM
Cn1nccc1-c1cc(-c2cnc3ncccc3c2)nc2sc([S@+]([O-])C3CCC3)c(N)c12 (stereo in doubt) [Compound 26, 2-(cyclobutanesulfinyl)-4-(1-methyl-1H-pyrazol-5-yl)-6-(1,8-naphthyridin-3-yl)thieno[2,3-b]pyridin-3-amine] | < 2.5 nM
Cn1nccc1-c1cc(-c2cnc3ncccc3c2)nc2sc([S@@+]([O-])C3CCC3)c(N)c12 (stereo in doubt) [Compound 27, 2-(cyclobutanesulfinyl)-4-(1-methyl-1H-pyrazol-5-yl)-6-(1,8-naphthyridin-3-yl)thieno[2,3-b]pyridin-3-amine] | > 10 nM
Cn1nccc1-c1cc(-c2ccc3nccnc3c2)nc2sc([S@+]([O-])C3CCC3)c(N)c12 [Compound 1, (R)-2-(cyclobutylsulfinyl)-4-(1-methyl-1H-pyrazol-5-yl)-6-(quinoxalin-6-yl)thieno[2,3-b]pyridin-3-amine] | < 2.5 nM
Cn1nccc1-c1cc(-c2ccc3cncnc3c2)nc2sc([S@+]([O-])C3CCC3)c(N)c12 [Compound 2, 2-[(R)-cyclobutanesulfinyl]-4-(1-methyl-1H-pyrazol-5-yl)-6-(quinazolin-7-yl)thieno[2,3-b]pyridin-3-amine] | < 2.5 nM
COCC[S+]([O-])c1sc2nc(-c3cnc4cccnc4c3)cc(-c3ccnn3C)c2c1N (centres unmarked) [Compound 3, 2-(2-methoxyethanesulfinyl)-4-(1-methyl-1H-pyrazol-5-yl)-6-(1,5-naphthyridin-3-yl)thieno[2,3-b]pyridin-3-amine] | < 2.5 nM
COCC[S@@+]([O-])c1sc2nc(-c3ccc4nccnc4c3)cc(-c3ccnn3C)c2c1N [Compound 4, 2-[(R)-2-methoxyethanesulfinyl]-4-(1-methyl-1H-pyrazol-5-yl)-6-(quinoxalin-6-yl)thieno[2,3-b]pyridin-3-amine] | < 2.5 nM
Cn1nccc1-c1cc(-c2cnc3ncccn23)nc2sc([S@+]([O-])C3CCC3)c(N)c12 [Compound 5, 2-[(R)-cyclobutanesulfinyl]-6-{imidazo[1,2-a]pyrimidin-3-yl}-4-(1-methyl-1H-pyrazol-5-yl)thieno[2,3-b]pyridin-3-amine] | 2.5 to 10 nM
COCC[S+]([O-])c1sc2nc(-c3cnc4ncccc4c3)cc(C3CCC3)c2c1N (centres unmarked) [Compound 6, 4-cyclobutyl-2-(2-methoxyethanesulfinyl)-6-(1,8-naphthyridin-3-yl)thieno[2,3-b]pyridin-3-amine] | < 2.5 nM
COCC[S+]([O-])c1sc2nc(-c3cnc4nccnc4c3)cc(C3CCC3)c2c1N (centres unmarked) [Compound 7, 4-cyclobutyl-2-(2-methoxyethanesulfinyl)-6-{pyrido[2,3-b]pyrazin-7-yl}thieno[2,3-b]pyridin-3-amine] | < 2.5 nM
CC(C)c1cc(-c2cnc(NCCO)nc2)nc2sc([S@@+]([O-])C3CCC3)c(N)c12 [Compound 8] | > 10 nM
Cn1nccc1-c1cc(-c2ccc3ncncc3c2)nc2sc([S@+]([O-])C3CCC3)c(N)c12 [Compound 10, 2-[(R)-cyclobutanesulfinyl]-4-(1-methyl-1H-pyrazol-5-yl)-6-(quinazolin-6-yl)thieno[2,3-b]pyridin-3-amine] | < 2.5 nM
COCC[S@@+]([O-])c1sc2nc(-c3cnc4cnccn34)cc(C3CCC3)c2c1N [Compound 11, (R)-4-cyclobutyl-6-(imidazo[1,2-a]pyrazin-3-yl)-2-((2-methoxyethyl)sulfinyl)thieno[2,3-b]pyridin-3-amine] | < 2.5 nM

SMILES | IC50
Cn1nccc1-c1cc(-c2cnc3ncccc3c2)nc2sc([S+]([O-])C3CCC3)c(N)c12 (centres unmarked) [Compound 12, 2-(cyclobutanesulfinyl)-4-(1-methyl-1H-pyrazol-5-yl)-6-(1,8-naphthyridin-3-yl)thieno[2,3-b]pyridin-3-amine] | < 2.5 nM
COCC[S@@+]([O-])c1sc2nc(-c3cnc4cnccn34)cc(-c3ccnn3C)c2c1N [Compound 13, (R)-6-(imidazo[1,2-a]pyrazin-3-yl)-2-((2-methoxyethyl)sulfinyl)-4-(1-methyl-1H-pyrazol-5-yl)thieno[2,3-b]pyridin-3-amine] | < 2.5 nM
Cn1cc2cc(-c3cc(C4CC5(COC5)C4)c4c(N)c([S@+]([O-])C5CCC5)sc4n3)cnc2n1 [Compound 14, (R)-2-(cyclobutylsulfinyl)-6-(2-methyl-2H-pyrazolo[3,4-b]pyridin-5-yl)-4-(2-oxaspiro[3.3]heptan-6-yl)thieno[2,3-b]pyridin-3-amine] | < 2.5 nM
COCC[S@@+]([O-])c1sc2nc(-c3ccc4ncncc4c3)cc(-c3ccnn3C)c2c1N [Compound 15, 2-[(R)-2-methoxyethanesulfinyl]-4-(1-methyl-1H-pyrazol-5-yl)-6-(quinazolin-6-yl)thieno[2,3-b]pyridin-3-amine] | < 2.5 nM
COCC[S@@+]([O-])c1sc2nc(-c3ccc4cncnc4c3)cc(-c3ccnn3C)c2c1N [Compound 16, 2-[(R)-2-methoxyethanesulfinyl]-4-(1-methyl-1H-pyrazol-5-yl)-6-(quinazolin-7-yl)thieno[2,3-b]pyridin-3-amine] | < 2.5 nM
COCC[S+]([O-])c1sc2nc(-c3cnc4nn(C)cc4c3)nc(C(C)C)c2c1N (centres unmarked) [Compound 17, 4-isopropyl-6-((2-methoxyethyl)sulfinyl)-2-(2-methyl-2H-pyrazolo[3,4-b]pyridin-5-yl)thieno[2,3-d]pyrimidin-5-amine] | < 2.5 nM
CC(C)c1cc(-c2cnc(N)nc2)nc2sc([S@+]([O-])C3CCC3)c(N)c12 [Compound 20] | < 2.5 nM
CC(C)c1cc(-c2cnc(N)nc2)nc2sc([S@@+]([O-])C3CCC3)c(N)c12 [Compound 21] | > 10 nM
CNc1ncc(-c2cc(C(C)C)c3c(N)c([S@+]([O-])CCOC)sc3n2)cn1 [Compound 22, 5-{3-amino-2-[(R)-2-methoxyethanesulfinyl]-4-(propan-2-yl)thieno[2,3-b]pyridin-6-yl}-N-methylpyrimidin-2-amine] | < 2.5 nM
COCC[S@@+]([O-])c1sc2nc(-c3cnc4nn(C)cc4c3)cc(C(C)(C)C)c2c1N [Compound 28, 4-tert-butyl-2-[(R)-2-methoxyethanesulfinyl]-6-{2-methyl-2H-pyrazolo[3,4-b]pyridin-5-yl}thieno[2,3-b]pyridin-3-amine] | < 2.5 nM
Cn1nccc1-c1cc(-c2cnc3c(c2)CNCC3)nc2sc([S+]([O-])C3CCC3)c(N)c12 (centres unmarked) [Compound 31, 2-(cyclobutanesulfinyl)-4-(1-methyl-1H-pyrazol-5-yl)-6-(5,6,7,8-tetrahydro-1,6-naphthyridin-3-yl)thieno[2,3-b]pyridin-3-amine] | 2.5 to 10 nM
COCC[S+]([O-])c1sc2nc(-c3cnc4c(c3)OCCN4)cc(-c3ccnn3C)c2c1N (centres unmarked) [Compound 32, 2-(2-methoxyethanesulfinyl)-4-(1-methyl-1H-pyrazol-5-yl)-6-{2H,3H,4H-pyrido[3,2-b][1,4]oxazin-7-yl}thieno[2,3-b]pyridin-3-amine] | < 2.5 nM
CC(C)c1cc(-c2cc(=O)n(C)cn2)nc2sc([S@+]([O-])C3CCC3)c(N)c12 [Compound 33, 6-{3-amino-2-[(R)-cyclobutanesulfinyl]-4-(propan-2-yl)thieno[2,3-b]pyridin-6-yl}-3-methyl-3,4-dihydropyrimidin-4-one] | < 2.5 nM
COCC[S@@+]([O-])c1sc2nc(-c3cc(=O)n(C)cn3)cc(C(C)C)c2c1N [Compound 34, 6-{3-amino-2-[(R)-2-methoxyethanesulfinyl]-4-(propan-2-yl)thieno[2,3-b]pyridin-6-yl}-3-methyl-3,4-dihydropyrimidin-4-one] | < 2.5 nM
CC(C)(C)c1cc(-c2cnc(N)nc2)nc2sc([S@+]([O-])C3CCC3)c(N)c12 [Compound 35, 5-{3-amino-4-tert-butyl-2-[(R)-cyclobutanesulfinyl]thieno[2,3-b]pyridin-6-yl}pyrimidin-2-amine] | < 2.5 nM
COCC[S@@+]([O-])c1sc2nc(-c3cc(=O)n(C)cn3)cc(-c3ccccc3)c2c1N [Compound A, reference compound] | < 2.5 nM

tested on: not listed separately; assay: kinetic aqueous solubility in pH 7 citrate buffer; format: physicochemical; conditions: kinetic from dmso stock, pH 7 citrate buffer solution, read-out: Kinetic Aq solubility (μM pH 7)

SMILES | solubility kinetic
COCC[S+]([O-])c1sc2nc(-c3cnc4nn(C)cc4c3)nc(C(C)C)c2c1N (centres unmarked) [Compound 17, 4-isopropyl-6-((2-methoxyethyl)sulfinyl)-2-(2-methyl-2H-pyrazolo[3,4-b]pyridin-5-yl)thieno[2,3-d]pyrimidin-5-amine] | 187 µM (≈ 80.5 µg/mL)
COCC[S@@+]([O-])c1sc2nc(-c3cc(=O)n(C)cn3)cc(-c3ccccc3)c2c1N [Compound A, reference compound] | 64 µM (≈ 28.2 µg/mL)
